Results as given in paper PMC8429728, “TNK1 is a ubiquitin-binding and 14-3-3-regulated kinase that can be targeted to block tumor growth” (Nature Communications, 2021).
Read-outs that look alike come from different tables or passages of the source.

Tests used:
Experiment in all cases: biochemical
Design in all cases: Reaction Biology 371-kinase panel at Km ATP, per cent enzyme activity relative to DMSO, single dose in duplicate
EPHA5 = EPHA5 (Homo sapiens, UniProt P54756); conditions: duplicate measurements, Km ATP
How it was run: (§1)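 Activity of each kinase, normalised to DMSO-treated controls, served as the read-out. The inhibitor was tested at 300 nM against 371 kinases in vitro. Curves fitted by variable-slope sigmoidal dose-response, constrained to a bottom of 0, gave IC50.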

HGK/MAP4K4 = HGK/MAP4K4 (Homo sapiens, UniProt O95819); conditions: duplicate measurements, Km ATP
How it was run: as §1

HPK1/MAP4K1 = HPK1/MAP4K1 (Homo sapiens, UniProt Q92918); conditions: duplicate measurements, Km ATP
How it was run: as §1

CDK6/cyclin D3 = CDK6/cyclin D3 (Homo sapiens, UniProt Q00534); conditions: duplicate measurements, Km ATP
How it was run: as §1

PKCepsilon = biological target: T1, PKCepsilon (Homo sapiens, UniProt Q02156); conditions: duplicate measurements, Km ATP
T1 construct: gene PRKCE
How it was run: as §1

MST4 = biological target: T2, MST4 (Homo sapiens, UniProt Q9P289); conditions: duplicate measurements, Km ATP
T2 construct: gene STK26
How it was run: as §1

ERBB4/HER4 = ERBB4/HER4 (Homo sapiens, UniProt Q15303); conditions: duplicate measurements, Km ATP
How it was run: as §1

LCK2/ICK = biological target: T3, LCK2/ICK (Homo sapiens, UniProt Q9UPZ9); conditions: duplicate measurements, Km ATP
T3 construct: gene CILK1
How it was run: as §1

PIM3 = PIM3 (Homo sapiens, UniProt Q86V86); conditions: duplicate measurements, Km ATP
How it was run: as §1

PKCiota = biological target: T4, PKCiota (Homo sapiens, UniProt P41743); conditions: duplicate measurements, Km ATP
T4 construct: gene PRKCI
How it was run: as §1

IRAK4 = IRAK4 (Homo sapiens, UniProt Q9NWZ3); conditions: duplicate measurements, Km ATP
How it was run: as §1

IKKb/IKBKB = IKKb/IKBKB (Homo sapiens, UniProt O14920); conditions: duplicate measurements, Km ATP
How it was run: as §1

JNK1 = biological target: T5, JNK1 (Homo sapiens, UniProt P45983); conditions: duplicate measurements, Km ATP; read-out: % Enzyme Activity (relative to DMSO controls) / TP-0005801 (0.3µM) / Data 1
T5 construct: gene MAPK8
How it was run: as §1

p70S6K/RPS6KB1 = p70S6K/RPS6KB1 (Homo sapiens, UniProt P23443); conditions: duplicate measurements, Km ATP
How it was run: as §1

CTK/MATK = CTK/MATK (Homo sapiens, UniProt P42679); conditions: duplicate measurements, Km ATP
How it was run: as §1

JAK3 = JAK3 (Homo sapiens, UniProt P52333); conditions: duplicate measurements, Km ATP
How it was run: as §1

IKKa/CHUK = IKKa/CHUK (Homo sapiens, UniProt O15111); conditions: duplicate measurements, Km ATP
How it was run: as §1

TBK1 = TBK1 (Homo sapiens, UniProt Q9UHD2); conditions: duplicate measurements, Km ATP
How it was run: as §1

RSK3 = biological target: T6, RSK3 (Homo sapiens, UniProt Q15349); conditions: duplicate measurements, Km ATP
T6 construct: gene RPS6KA2
How it was run: as §1

RON/MST1R = RON/MST1R (Homo sapiens, UniProt Q04912); conditions: duplicate measurements, Km ATP
How it was run: as §1

[1] = read-out: % Enzyme Activity (relative to DMSO controls) / TP-0005801 (0.3µM) / Data 1
[2] = read-out: % Enzyme Activity (relative to DMSO controls) / TP-0005801 (0.3µM) / Data 2

Sequence of IKKa/CHUK (O15111 whole entry): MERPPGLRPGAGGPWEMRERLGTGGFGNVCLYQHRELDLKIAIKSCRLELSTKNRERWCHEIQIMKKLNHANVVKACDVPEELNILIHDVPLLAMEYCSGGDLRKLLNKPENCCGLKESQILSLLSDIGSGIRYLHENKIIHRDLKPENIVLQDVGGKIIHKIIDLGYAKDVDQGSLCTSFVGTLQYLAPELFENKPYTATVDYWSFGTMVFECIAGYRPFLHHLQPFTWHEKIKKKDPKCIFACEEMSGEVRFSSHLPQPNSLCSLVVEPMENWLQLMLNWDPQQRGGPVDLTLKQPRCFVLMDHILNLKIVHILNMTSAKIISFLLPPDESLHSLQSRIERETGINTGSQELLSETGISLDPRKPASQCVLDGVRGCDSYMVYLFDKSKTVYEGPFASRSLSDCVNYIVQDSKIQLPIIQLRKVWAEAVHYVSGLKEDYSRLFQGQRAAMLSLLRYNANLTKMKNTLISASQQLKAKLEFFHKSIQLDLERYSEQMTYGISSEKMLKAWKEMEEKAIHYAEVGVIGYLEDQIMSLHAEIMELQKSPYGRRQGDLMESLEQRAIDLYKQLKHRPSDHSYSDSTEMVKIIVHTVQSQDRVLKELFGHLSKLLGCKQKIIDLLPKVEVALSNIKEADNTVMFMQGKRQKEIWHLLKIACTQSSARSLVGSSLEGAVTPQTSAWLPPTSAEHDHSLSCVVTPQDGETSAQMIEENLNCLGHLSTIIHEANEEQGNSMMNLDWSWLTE
Sequence of HPK1/MAP4K1 (Q92918 whole entry): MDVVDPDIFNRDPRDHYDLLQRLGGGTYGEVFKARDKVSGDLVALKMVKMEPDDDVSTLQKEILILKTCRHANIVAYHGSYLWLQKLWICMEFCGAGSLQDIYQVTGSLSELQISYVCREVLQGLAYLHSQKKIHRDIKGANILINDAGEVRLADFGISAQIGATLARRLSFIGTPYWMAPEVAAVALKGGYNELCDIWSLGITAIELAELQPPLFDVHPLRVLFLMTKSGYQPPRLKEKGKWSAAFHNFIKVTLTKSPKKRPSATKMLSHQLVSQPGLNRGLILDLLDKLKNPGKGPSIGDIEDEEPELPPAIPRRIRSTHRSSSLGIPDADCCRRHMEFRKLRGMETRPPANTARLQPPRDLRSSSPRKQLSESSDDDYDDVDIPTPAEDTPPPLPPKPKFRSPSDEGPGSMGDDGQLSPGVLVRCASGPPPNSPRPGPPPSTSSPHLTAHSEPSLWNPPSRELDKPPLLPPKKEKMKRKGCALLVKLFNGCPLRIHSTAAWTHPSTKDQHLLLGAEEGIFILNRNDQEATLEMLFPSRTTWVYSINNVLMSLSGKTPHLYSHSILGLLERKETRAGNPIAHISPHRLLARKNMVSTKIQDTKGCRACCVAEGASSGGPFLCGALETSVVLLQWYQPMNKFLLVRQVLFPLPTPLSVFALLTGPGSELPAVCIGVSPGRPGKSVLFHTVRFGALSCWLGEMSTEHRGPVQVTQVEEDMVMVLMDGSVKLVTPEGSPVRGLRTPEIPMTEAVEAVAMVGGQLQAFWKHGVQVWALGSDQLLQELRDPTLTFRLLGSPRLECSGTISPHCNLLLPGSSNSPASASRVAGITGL
Sequence of TBK1 (Q9UHD2 whole entry): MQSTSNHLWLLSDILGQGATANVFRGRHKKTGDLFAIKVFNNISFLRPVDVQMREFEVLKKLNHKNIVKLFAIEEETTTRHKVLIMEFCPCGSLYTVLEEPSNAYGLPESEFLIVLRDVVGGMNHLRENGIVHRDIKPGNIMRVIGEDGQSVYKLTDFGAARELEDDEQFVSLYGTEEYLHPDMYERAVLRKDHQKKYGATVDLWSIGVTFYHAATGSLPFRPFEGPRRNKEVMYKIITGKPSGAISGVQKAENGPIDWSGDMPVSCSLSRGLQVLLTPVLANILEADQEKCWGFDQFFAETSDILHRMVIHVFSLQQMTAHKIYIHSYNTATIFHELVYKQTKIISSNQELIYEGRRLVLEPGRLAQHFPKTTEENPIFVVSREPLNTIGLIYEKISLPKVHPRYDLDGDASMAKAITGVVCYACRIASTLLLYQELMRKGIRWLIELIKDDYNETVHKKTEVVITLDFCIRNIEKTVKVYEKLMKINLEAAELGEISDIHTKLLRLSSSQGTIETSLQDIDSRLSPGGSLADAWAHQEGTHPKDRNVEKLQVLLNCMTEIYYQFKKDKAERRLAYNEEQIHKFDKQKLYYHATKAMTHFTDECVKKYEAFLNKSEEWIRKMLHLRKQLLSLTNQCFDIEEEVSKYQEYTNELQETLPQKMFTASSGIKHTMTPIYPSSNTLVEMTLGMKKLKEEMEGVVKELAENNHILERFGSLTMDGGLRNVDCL
Sequence of EPHA5 (P54756 whole entry): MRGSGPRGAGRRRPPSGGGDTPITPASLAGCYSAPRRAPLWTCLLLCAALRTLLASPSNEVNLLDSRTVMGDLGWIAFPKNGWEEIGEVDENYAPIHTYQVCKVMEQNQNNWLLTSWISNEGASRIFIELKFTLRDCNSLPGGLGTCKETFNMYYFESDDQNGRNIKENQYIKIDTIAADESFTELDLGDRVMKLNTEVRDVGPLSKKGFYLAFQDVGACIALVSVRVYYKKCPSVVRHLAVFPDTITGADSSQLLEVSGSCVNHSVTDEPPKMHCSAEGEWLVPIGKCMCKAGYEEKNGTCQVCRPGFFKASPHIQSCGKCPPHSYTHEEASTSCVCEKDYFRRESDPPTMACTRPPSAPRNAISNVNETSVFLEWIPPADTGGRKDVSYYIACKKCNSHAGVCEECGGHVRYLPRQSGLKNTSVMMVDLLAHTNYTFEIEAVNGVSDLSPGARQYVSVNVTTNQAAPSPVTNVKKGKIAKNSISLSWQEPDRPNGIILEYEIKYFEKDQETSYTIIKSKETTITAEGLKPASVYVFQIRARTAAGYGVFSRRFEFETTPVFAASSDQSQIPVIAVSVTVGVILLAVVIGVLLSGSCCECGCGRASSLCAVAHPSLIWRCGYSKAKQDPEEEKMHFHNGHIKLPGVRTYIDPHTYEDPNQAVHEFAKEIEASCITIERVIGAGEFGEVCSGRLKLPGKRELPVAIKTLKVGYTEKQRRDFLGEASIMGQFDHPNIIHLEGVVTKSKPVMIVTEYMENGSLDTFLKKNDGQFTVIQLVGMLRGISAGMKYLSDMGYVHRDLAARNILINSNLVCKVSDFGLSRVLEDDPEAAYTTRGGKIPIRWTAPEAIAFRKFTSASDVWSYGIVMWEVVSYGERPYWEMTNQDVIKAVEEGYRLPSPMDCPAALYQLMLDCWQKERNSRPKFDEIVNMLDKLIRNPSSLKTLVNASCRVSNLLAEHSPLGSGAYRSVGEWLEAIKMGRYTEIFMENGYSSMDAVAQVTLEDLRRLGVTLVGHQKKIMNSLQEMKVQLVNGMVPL
Sequence of IKKb/IKBKB (O14920 whole entry): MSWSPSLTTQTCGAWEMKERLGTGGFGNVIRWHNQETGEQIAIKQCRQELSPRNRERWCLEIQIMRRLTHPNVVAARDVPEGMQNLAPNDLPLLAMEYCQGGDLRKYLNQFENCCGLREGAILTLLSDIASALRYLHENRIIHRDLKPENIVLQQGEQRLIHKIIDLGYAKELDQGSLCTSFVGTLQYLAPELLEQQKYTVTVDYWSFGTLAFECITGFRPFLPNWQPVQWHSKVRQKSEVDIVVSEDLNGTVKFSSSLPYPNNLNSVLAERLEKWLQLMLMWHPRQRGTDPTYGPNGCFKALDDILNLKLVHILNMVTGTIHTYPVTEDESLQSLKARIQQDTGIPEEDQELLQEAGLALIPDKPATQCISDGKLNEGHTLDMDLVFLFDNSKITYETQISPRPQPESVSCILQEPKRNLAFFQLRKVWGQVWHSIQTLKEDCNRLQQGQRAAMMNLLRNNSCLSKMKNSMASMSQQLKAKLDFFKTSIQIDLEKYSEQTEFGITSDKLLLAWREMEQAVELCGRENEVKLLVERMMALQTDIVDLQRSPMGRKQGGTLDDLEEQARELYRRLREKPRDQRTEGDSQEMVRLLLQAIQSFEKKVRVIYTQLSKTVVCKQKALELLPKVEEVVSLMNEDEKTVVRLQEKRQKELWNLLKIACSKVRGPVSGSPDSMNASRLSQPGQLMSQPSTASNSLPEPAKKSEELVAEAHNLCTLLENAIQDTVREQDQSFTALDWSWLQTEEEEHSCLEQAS
Sequence of p70S6K/RPS6KB1 (P23443 whole entry): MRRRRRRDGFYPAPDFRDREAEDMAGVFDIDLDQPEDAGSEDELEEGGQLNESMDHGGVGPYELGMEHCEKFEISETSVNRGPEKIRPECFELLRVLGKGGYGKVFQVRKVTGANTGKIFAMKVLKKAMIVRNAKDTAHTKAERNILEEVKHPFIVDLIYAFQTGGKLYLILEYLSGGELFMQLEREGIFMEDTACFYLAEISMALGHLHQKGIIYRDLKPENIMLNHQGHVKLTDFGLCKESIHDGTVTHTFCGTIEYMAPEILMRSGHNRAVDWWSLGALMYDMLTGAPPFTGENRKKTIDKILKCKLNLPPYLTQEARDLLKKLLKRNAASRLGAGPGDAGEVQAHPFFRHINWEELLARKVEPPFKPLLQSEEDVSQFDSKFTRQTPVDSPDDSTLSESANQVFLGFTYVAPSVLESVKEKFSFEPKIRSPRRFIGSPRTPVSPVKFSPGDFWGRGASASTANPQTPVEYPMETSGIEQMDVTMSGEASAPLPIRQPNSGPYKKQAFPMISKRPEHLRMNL

Work on COc1cc(N2CCN(C)CC2)c(C)cc1Nc1ncc(Br)c(Nc2cccnc2N(C)C)n1 [TP-5801] yielded a remaining activity at 0.3 µM (EPHA5; [1]) of 122%, a remaining activity at 0.3 µM (EPHA5; [2]) of 117% and a remaining activity at 0.3 µM (HGK/MAP4K4; [1]) of 103%. For the same compound, the remaining activity at 0.3 µM (HGK/MAP4K4; [2]) was 102%, the remaining activity at 0.3 µM (HPK1/MAP4K1; [1]) was 25.8% and the remaining activity at 0.3 µM (HPK1/MAP4K1; [2]) was 25.6%. It also gave a remaining activity at 0.3 µM (CDK6/cyclin D3; [1]) of 103%, a remaining activity at 0.3 µM (CDK6/cyclin D3; [2]) of 101% and a remaining activity at 0.3 µM (PKCepsilon; [1]) of 93.6%. For the same compound, the remaining activity at 0.3 µM (PKCepsilon; [2]) was 93.3%, the remaining activity at 0.3 µM (MST4; [1]) was 101% and the remaining activity at 0.3 µM (MST4; [2]) was 92.7%. For the same compound, the remaining activity at 0.3 µM (ERBB4/HER4; [1]) was 103%, the remaining activity at 0.3 µM (ERBB4/HER4; [2]) was 102% and the remaining activity at 0.3 µM (LCK2/ICK; [1]) was 90.2%. It also gave a remaining activity at 0.3 µM (LCK2/ICK; [2]) of 87.9%, a remaining activity at 0.3 µM (PIM3; [1]) of 96% and a remaining activity at 0.3 µM (PIM3; [2]) of 95.5%. It also gave a remaining activity at 0.3 µM (PKCiota; [1]) of 101%, a remaining activity at 0.3 µM (PKCiota; [2]) of 99.1% and a remaining activity at 0.3 µM (IRAK4; [1]) of 90.6%. It also gave a remaining activity at 0.3 µM (IRAK4; [2]) of 89.2%, a remaining activity at 0.3 µM (IKKb/IKBKB; [1]) of 104% and a remaining activity at 0.3 µM (IKKb/IKBKB; [2]) of 102%. It also gave a remaining activity at 0.3 µM (JNK1) of 74.7%, a remaining activity at 0.3 µM (p70S6K/RPS6KB1; [1]) of 105% and a remaining activity at 0.3 µM (p70S6K/RPS6KB1; [2]) of 102%. The remaining activity at 0.3 µM (CTK/MATK; [1]) was 108%, the remaining activity at 0.3 µM (CTK/MATK; [2]) was 106% and the remaining activity at 0.3 µM (JAK3; [1]) was 29.3%. For the same compound, the remaining activity at 0.3 µM (JAK3; [2]) was 28.7%, the remaining activity at 0.3 µM (IKKa/CHUK; [1]) was 99.5% and the remaining activity at 0.3 µM (IKKa/CHUK; [2]) was 94.3%. It also gave a remaining activity at 0.3 µM (TBK1; [1]) of 97.8%, a remaining activity at 0.3 µM (TBK1; [2]) of 96.4% and a remaining activity at 0.3 µM (RSK3; [1]) of 80.3%. It also gave a remaining activity at 0.3 µM (RSK3; [2]) of 79.2%, a remaining activity at 0.3 µM (RON/MST1R; [1]) of 94% and a remaining activity at 0.3 µM (RON/MST1R; [2]) of 92.4%.
